Measurements as given in article PMC9389462, “Small molecule MMRi62 targets MDM4 for degradation and induces leukemic cell apoptosis regardless of p53 status” (Frontiers in Oncology, 2022).

Biological target: T1, MDM4 (Homo sapiens, UniProt O15151+Q00987)
T1 construct: RING domain (MDM2-MDM4 RING heterodimer, pETDuet, E. coli); with MDM2 (RING domain)
Assay: microscale thermophoresis on preformed, dye-labelled MDM2-MDM4 RING heterodimer
Assay type: binding

T1 sequence (O15151 416-490 limits assumed): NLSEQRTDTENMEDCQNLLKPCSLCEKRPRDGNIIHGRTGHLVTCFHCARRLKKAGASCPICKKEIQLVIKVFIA
T1 sequence (Q00987 430-491 limits assumed): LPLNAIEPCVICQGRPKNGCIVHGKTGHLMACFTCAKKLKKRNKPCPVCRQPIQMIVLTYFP

Kd [nM] | Structure (SMILES)
~140 | Oc1c(C(Nc2ccccn2)c2cccc(Cl)c2Cl)ccc2cccnc12 (racemic) [MMRi62]
~896 | O=C(O)c1ccc(C(Nc2ccccn2)c2cc(Cl)c3cccnc3c2O)cc1 (racemic) [MMRi67]
